Results as given in patent US7981912B2, “Indole acetic acids exhibiting CRTH2 receptor antagonism and uses thereof” (Wyeth LLC, priority 2004, dated 2011).

Target: T1, human CRTH2 (Homo sapiens, UniProt Q9Y5Y4)
T1 sequence (Q9Y5Y4 1-395): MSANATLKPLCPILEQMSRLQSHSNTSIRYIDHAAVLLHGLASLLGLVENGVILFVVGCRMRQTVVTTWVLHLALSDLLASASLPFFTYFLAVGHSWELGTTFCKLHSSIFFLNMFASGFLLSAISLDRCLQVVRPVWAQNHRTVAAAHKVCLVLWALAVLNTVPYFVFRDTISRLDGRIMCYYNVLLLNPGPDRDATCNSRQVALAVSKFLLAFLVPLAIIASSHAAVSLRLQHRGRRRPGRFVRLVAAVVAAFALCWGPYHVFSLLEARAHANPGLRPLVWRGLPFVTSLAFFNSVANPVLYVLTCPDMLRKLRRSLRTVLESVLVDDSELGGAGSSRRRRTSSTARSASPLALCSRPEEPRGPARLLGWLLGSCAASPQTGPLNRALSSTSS
Test: CRTH-2 binding assay (scintillation proximity assay, inhibition of 3H-PGD2 binding)
Parameters: expressed in transfected cells; host or cells: HEK 293EBNA-hCRTH2 (membrane preparation)
Settings: inhibition of 3H-PGD2 (3.6 nM) binding to HEK 293EBNA-hCRTH2 membranes; Ki calculated from IC50
Summary of the method: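 Membranes from HEK 293EBNA cells stably expressing human CRTH2 (~20 μg protein/100 μL) with SPA beads and 3.6 nM 3H-PGD2 in 10 mM Hepes pH 7.4, 1 mM EDTA, 10 mM MnCl2, glycerol, 2 h at room temperature, seven compound concentrations in triplicate. Nonspecific binding defined with indomethacin; IC50 converted to Ki using Kd and radioligand concentration.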

Row | SMILES | Ki [nM]
1 | Cc1c(C2=NN(Cc3ccccc3)S(=O)(=O)c3ccccc32)c2cc(F)ccc2n1CC(=O)O [Example 75, [3-(2-Benzyl-1,1-dioxo-1,2-dihydro-1λ^6-benzo[e][1,2,3]thiadiazin-4-yl)-5-fluoro-2-methyl-indol-1-yl]-acetic acid] | < 1000
2 | Cc1c(C2c3ccccc3S(=O)(=O)N2Cc2cccc(C(F)(F)F)c2)c2ccccc2n1CC(=O)O (centres unmarked) [Example 43, {3-[1,1-Dioxo-2-(3-trifluoromethyl-benzyl)-2,3-dihydro-1H-1λ^6-benzo[d]isothiazol-3-yl]-2-methyl-indol-1-yl}-acetic acid] | < 1000
3 | COc1ccc2c(c1)c(C1c3ccccc3S(=O)(=O)N1C(C)Cc1ccccc1)cn2CC(=O)O (centres unmarked) [Example 56, {5-Methoxy-3-[2-(1-methyl-2-phenyl-ethyl)-1,1-dioxo-2,3-dihydro-1H-1λ^6-benzo[d]isothiazol-3-yl]-indol-1-yl}-acetic acid] | < 10000
4 | Cc1c(C2c3ccccc3S(=O)(=O)N2CCO)c2ccccc2n1CC(=O)O (centres unmarked) [Example 38, {3-[2-(2-Hydroxy-ethyl)-1,1-dioxo-2,3-dihydro-1H-1λ^6-benzo[d]isothiazol-3-yl]-2-methyl-indol-1-yl}-acetic acid] | < 10000
5 | Cc1c(C2c3ccccc3S(=O)(=O)N2CCCOc2ccccc2)c2ccccc2n1CC(=O)O (centres unmarked) [Example 46, {3-[1,1-Dioxo-2-(3-phenoxy-propyl)-2,3-dihydro-1H-1λ^6-benzo[d]isothiazol-3-yl]-2-methyl-indol-1-yl}-acetic acid] | < 1000
6 | Cc1c(C2=NN(CCC(C)C)S(=O)(=O)c3ccccc32)c2ccccc2n1CC(=O)O [Example 23, {2-Methyl-3-[2-(3-methyl-butyl)-1,1-dioxo-1,2-dihydro-1λ^6-benzo[e][1,2,3]thiadiazin-4-yl]-indol-1-yl}-acetic acid] | < 100
7 | Cc1c(-c2nn(CCOc3ccc(Cl)cc3)c(=O)c3ccccc23)c2cc(Cl)ccc2n1CC(=O)O [Example 25, (5-Chloro-3-{3-[2-(4-chloro-phenoxy)-ethyl]-4-oxo-3,4-dihydro-phthalazin-1-yl}-2-methyl-indol-1-yl)-acetic acid] | < 100
8 | CCCCN1N=C(c2c(C)n(CC(=O)O)c3ccccc23)[C@H]2CC=CC[C@H]2C1=O (stereo in doubt) [Example 70, [3-(3-Butyl-4-oxo-3,4,4a,5,8,8a-hexahydro-phthalazin-1-yl)-2-methyl-indol-1-yl]-acetic acid] | < 1000
9 | O=C(O)Cn1cc(C2=NN(Cc3ccccc3)S(=O)(=O)c3ccccc32)c2ccccc21 [Example 17, [3-(2-Benzyl-1,1-dioxo-1,2-dihydro-1λ6-benzo[e][1,2,3]thiadiazin-4-yl)-indol-1-yl]-acetic acid] | < 1000
10 | COc1ccc2c(c1)c(C1c3ccccc3S(=O)(=O)N1CCc1ccccc1)cn2CC(=O)O (centres unmarked) [Example 55, [3-(1,1-Dioxo-2-phenethyl-2,3-dihydro-1H-1λ^6-benzo[d]isothiazol-3-yl)-5-methoxy-indol-1-yl]-acetic acid] | < 10000
11 | Cc1noc(C)c1CN1N=C(c2c(C)n(CC(=O)O)c3ccc(F)cc23)c2ccccc2S1(=O)=O [Example 90, {3-[2-(3,5-Dimethyl-isoxazol-4-ylmethyl)-1,1-dioxo-1,2-dihydro-1λ^6-benzo[e][1,2,3]thiadiazin-4-yl]-5-fluoro-2-methyl-indol-1-yl}-acetic acid] | < 100
12 | O=C(O)Cn1cc(C2NS(=O)(=O)c3ccccc32)c2cc(Cl)ccc21 (centres unmarked) [Example 5, [5-Chloro-3-(1,1-dioxo-2,3-dihydro-1H-1λ^6-benzo[d]isothiazol-3-yl)-indol-1-yl]-acetic acid] | < 10000
13 | CCOC(=O)CN1C(c2c(C)n(CC(=O)O)c3ccccc23)c2ccccc2S1(=O)=O (centres unmarked) [Example 40, [3-(2-Ethoxycarbonylmethyl-1,1-dioxo-2,3-dihydro-1H-1λ^6benzo[d]isothiazol-3-yl)-2-methyl-indol-1-yl]-acetic acid] | < 1000
14 | O=C(O)Cn1cc(C2c3ccccc3S(=O)(=O)N2Cc2csc(-c3cccs3)n2)c2ccccc21 (centres unmarked) [Example 33, {3-[1,1-Dioxo-2-(2-thiophen-2-yl-thiazol-4-ylmethyl)-2,3-dihydro-1H-1λ^6-benzo[d]isothiazol-3-yl]-indol-1-yl}-acetic acid] | < 1000
15 | CCN1N=C(c2c(C)n(CC(=O)O)c3ccc(F)cc23)c2ccccc2S1(=O)=O [Example 91, [3-(2-Ethyl-1,1-dioxo-1,2-dihydro-1λ^6-benzo[e][1,2,3]thiadiazin-4-yl)-5-fluoro-2-methyl-indol-1-yl]-acetic acid] | < 100
16 | O=C(O)Cn1cc(C2NS(=O)(=O)c3ccccc32)c2c(Cl)cccc21 (centres unmarked) [Example 11, [4-Chloro-3-(1,1-dioxo-2,3-dihydro-1H-1λ^6-benzo[d]isothiazol-3-yl)-indol-1-yl]-acetic acid] | < 1000
17 | COc1ccc2c(c1)c(C1NS(=O)(=O)c3ccccc31)cn2CC(=O)O (centres unmarked) [Example 4, [3-(1,1-Dioxo-2,3-dihydro-1H-1λ^6-benzo[d]isothiazol-3-yl)-5-methoxy-indol-1-yl]-acetic acid] | < 10000
18 | C=CCN1C(c2c(C)n(CC(=O)O)c3ccc(Cl)cc23)c2ccccc2S1(=O)=O (centres unmarked) [Example 58, [3-(2-Allyl-1,1-dioxo-2,3-dihydro-1H-1λ^6-benzo[d]isothiazol-3-yl)-5-chloro-2-methyl-indol-1-yl]-acetic acid] | < 1000
19 | Cc1c(C2c3ccccc3S(=O)(=O)N2C(C)C)c2ccccc2n1CC(=O)O (centres unmarked) [Example 47, [3-(2-Isopropyl-1,1-dioxo-2,3-dihydro-1H-1λ^6-benzo[d]isothiazol-3-yl)-2-methyl-indol-1-yl]-acetic acid] | < 1000
20 | COc1ccc2c(c1)c(C1c3ccccc3S(=O)(=O)N1Cc1ccc(F)cc1)cn2CC(=O)O (centres unmarked) [Example 54, {3-[2-(4-Fluoro-benzyl)-1,1-dioxo-2,3-dihydro-1H-1λ^6-benzo[d]isothiazol-3-yl]-5-methoxy-indol-1-yl}-acetic acid] | < 1000
21 | Cc1ccc2c(c1)c(C1c3ccccc3S(=O)(=O)N1C(C)C#N)cn2CC(=O)O (centres unmarked) [Example 53, {3-[2-(Cyano-methyl-methyl)-1,1-dioxo-2,3-dihydro-1H-1λ^6-benzo[d]isothiazol-3-yl]-5-methyl-indol-1-yl}-acetic acid] | < 10000
22 | Cc1c(C2c3ccccc3S(=O)(=O)N2CCC(C)C)c2ccccc2n1CC(=O)O (centres unmarked) [Example 44, {2-Methyl-3-[2-(3-methyl-butyl)-1,1-dioxo-2,3-dihydro-1H-1λ^6-benzo[d]isothiazol-3-yl]-indol-1-yl}-acetic acid] | < 1000
23 | O=C(O)Cn1cc(C2NS(=O)(=O)c3ccccc32)c2ccc(Cl)cc21 (centres unmarked) [Example 12, [6-Chloro-3-(1,1-dioxo-2,3-dihydro-1H-1λ^6-benzo[d]isothiazol-3-yl)-indol-1-yl]-acetic acid] | < 1000
24 | Cc1c(C2=NN(Cc3ccccc3)C(=O)C(C)(C)C2)c2cc(Cl)ccc2n1CC(=O)O [Example 73, [3-(1-Benzyl-5,5-dimethyl-6-oxo-1,4,5,6-tetrahydro-pyridazin-3-yl)-5-chloro-2-methyl-indol-1-yl]-acetic acid] | < 100
25 | Cc1c(-c2nn(CC3COc4ccccc4O3)c(=O)c3ccccc23)c2cc(Cl)ccc2n1CC(=O)O (centres unmarked) [Example 27, {5-Chloro-3-[3-(2,3-dihydro-benzo[1,4]dioxin-2-ylmethyl)-4-oxo-3,4-dihydro-phthalazin-1-yl]-2-methyl-indol-1-yl}-acetic acid] | < 100
26 | COc1ccc(CN2N=C(c3c(C)n(CC(=O)O)c4ccc(F)cc34)c3ccccc3S2(=O)=O)cc1 [Example 80, {3-[2-(4-Methoxy-benzyl)-1,1-dioxo-1,2-dihydro-1λ^6-benzo[e][1,2,3]thiadiazin-4-yl]-5-fluoro-2-methyl-indol-1-yl}-acetic acid] | < 100
